Tested on: mouse Lewis lung cancer
Assay: Survival (Kaplan-Meier) and micro-CT tumour examination in Lewis lung cancer mice (Example 3)
Conditions: 5 mg/kg, once every 3 days, 7 times, plasmid intravenous, Gefitinib oral
Protocol: To further study the therapeutic effect of the EGFR siRNA plasmid on mouse Lewis lung cancer, after successful model construction of Lewis lung cancer mice, we performed treatment in the following three groups: the EGFR-si plasmid group, Gefitinib group and control plasmid group, respectively. […] The EGFR-si plasmid and control plasmid were administered by intravenous injection, and Gefitinib was administered orally. The dosage in each treatment group was 5 mg/kg, and the administration interval was once every 3 days, for a total of 7 times. After the treatment, we recorded the survival situation of the mice and plotted the Kaplan-Meier survival curve using the Graphpad Prism statistical software.

SMILES: COc1cc2ncnc(Nc3ccc(F)c(Cl)c3)c2cc1OCCCN1CCOCC1 [Gefitinib]
- change of lung tumours after the treatment (micro-CT): the tumours generally grew

Source: US11304970B2, “EGFR gene expression-suppressing siRNA, precursor of same, and applications thereof” (JIANGSU MICROMEDMARK BIOTECH CO., LTD., priority 2016, dated 2022)
